The results in this text go back to ChEMBL document CHEMBL1201862, “PubChem BioAssay data set” (2004).

The structures appear in SMILES notation. Active and inactive are the calls of the source.

One assay addresses Cytochrome P450 2D6 (Homo sapiens, UniProt P10635).
For the next assay, the target named is T1, Coagulation factor XII (Homo sapiens, UniProt P00748).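 Further: activated factor XIIa alpha cleaving a fluorogenic AMC peptide substrate; inhibitor potency from loss of enzyme activity.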
T1 sequence (P00748 whole entry): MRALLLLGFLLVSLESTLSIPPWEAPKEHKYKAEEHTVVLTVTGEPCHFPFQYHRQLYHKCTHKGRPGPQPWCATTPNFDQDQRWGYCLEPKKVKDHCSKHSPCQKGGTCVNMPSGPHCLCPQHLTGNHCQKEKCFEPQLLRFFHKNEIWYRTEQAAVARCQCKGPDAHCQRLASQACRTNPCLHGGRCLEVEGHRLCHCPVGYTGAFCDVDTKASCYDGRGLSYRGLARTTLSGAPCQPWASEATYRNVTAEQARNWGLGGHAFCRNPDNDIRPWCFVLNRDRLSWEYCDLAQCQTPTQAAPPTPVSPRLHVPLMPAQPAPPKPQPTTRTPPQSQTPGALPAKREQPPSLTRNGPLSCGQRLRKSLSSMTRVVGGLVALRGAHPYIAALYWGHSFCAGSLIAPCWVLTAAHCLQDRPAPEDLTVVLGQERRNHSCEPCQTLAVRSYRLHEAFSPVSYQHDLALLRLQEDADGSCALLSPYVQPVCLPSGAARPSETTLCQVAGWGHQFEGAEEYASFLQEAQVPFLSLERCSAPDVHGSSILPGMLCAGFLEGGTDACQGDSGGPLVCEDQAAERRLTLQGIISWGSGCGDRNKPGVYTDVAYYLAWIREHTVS
The assay is classed as functional.

The target of assay [1] is T2, Calpain-2 catalytic subunit (Sus scrofa, UniProt P43367).
T2 sequence (P43367 whole entry): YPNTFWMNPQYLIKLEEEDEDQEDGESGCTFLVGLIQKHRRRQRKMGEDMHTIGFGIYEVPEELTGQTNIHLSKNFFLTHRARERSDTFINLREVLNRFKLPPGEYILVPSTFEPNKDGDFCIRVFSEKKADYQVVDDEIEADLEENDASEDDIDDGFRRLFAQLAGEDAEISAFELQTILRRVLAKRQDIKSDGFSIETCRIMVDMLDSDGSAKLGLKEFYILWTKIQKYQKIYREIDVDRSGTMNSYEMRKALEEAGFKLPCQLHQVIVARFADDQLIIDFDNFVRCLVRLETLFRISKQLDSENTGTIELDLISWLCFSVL
As to the kind of experiment: m-calpain protease blockers, concentration series – biochemical, fluorogenic peptide substrate, dose response (AID 1420). The assay is classed as functional.

In assay [2] the target is T3, Beta-galactosidase (Escherichia coli, UniProt Q8VNN2). As to the kind of experiment: detection-enzyme interference by beta-gal modulators – biochemical, E. coli enzyme, set 3, artefact control for CCR6 antagonist project, dose response (AID 504712). The class given is functional.
T3 sequence (Q8VNN2 whole entry): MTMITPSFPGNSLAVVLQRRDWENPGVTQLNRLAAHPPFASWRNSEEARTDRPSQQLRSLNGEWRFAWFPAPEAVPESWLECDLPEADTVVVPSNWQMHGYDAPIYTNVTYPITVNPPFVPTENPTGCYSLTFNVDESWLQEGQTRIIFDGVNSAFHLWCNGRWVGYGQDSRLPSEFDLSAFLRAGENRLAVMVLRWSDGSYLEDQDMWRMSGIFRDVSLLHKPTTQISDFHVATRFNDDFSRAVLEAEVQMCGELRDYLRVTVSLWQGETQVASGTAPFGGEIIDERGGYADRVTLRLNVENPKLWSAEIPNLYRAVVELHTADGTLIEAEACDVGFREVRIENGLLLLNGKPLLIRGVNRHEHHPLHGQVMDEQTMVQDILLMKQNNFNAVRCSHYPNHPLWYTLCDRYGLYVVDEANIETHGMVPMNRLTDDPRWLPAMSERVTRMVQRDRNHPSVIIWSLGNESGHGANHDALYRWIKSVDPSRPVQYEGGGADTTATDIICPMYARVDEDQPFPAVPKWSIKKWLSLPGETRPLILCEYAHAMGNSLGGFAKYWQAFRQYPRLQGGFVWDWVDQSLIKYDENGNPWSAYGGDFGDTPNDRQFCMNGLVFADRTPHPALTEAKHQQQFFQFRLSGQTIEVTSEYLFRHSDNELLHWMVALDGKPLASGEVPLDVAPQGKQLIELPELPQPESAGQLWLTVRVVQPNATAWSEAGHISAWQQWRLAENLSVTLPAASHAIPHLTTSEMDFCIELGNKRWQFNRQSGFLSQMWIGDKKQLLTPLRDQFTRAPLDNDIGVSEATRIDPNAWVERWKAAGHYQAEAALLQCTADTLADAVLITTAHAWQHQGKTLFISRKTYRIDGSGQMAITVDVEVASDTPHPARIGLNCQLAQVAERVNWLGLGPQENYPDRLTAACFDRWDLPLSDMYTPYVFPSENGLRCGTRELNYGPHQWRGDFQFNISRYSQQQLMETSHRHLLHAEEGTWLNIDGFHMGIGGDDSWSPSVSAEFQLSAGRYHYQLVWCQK
Assay [3] has as its target T3, Beta-galactosidase. The class given is functional.
In a further assay the test system is Streptococcus. Kind of assay: GAS UMAA2166 growth inhibition – luminescence, BacTiterGlo, counter-screen for streptokinase expression inhibitor project, dose response (AID 1915).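 Further: potency for reduction of bacterial viability or growth.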 The class given is functional, organism-based.
Assay [4] addresses T4, Kappa-type opioid receptor (Homo sapiens, UniProt P41145). The assay is classed as functional.
The subject of assay [5] is Streptococcus sp. 'group A'. As to the kind of experiment: Streptococcus pyogenes SK(-)GAS viability under kanamycin – luminescence, BacTiterGlo, confirmation, counter-screen for streptokinase expression inhibitor project, dose response (AID 1900). The assay is classed as functional, organism-based.
Assay [6] addresses T4, Kappa-type opioid receptor. The assay is classed as functional. The source holds these as a separate data set.
A short description of assay [7]: Counterscreen for AddAB inhibitors: absorbance-based bacterial cell-based high throughput dose response assay for inhibitors of bacterial viability. [Related pubchem assays (depositor defined):AID435030, AID449728, AID449731, AID488942, AID488955, AID488956]. The assay is classed as functional.
The target of another assay is T5, Exodeoxyribonuclease V (Escherichia coli (strain K12), UniProt P04993+P07648+P08394).
T5 sequence (P04993 whole entry): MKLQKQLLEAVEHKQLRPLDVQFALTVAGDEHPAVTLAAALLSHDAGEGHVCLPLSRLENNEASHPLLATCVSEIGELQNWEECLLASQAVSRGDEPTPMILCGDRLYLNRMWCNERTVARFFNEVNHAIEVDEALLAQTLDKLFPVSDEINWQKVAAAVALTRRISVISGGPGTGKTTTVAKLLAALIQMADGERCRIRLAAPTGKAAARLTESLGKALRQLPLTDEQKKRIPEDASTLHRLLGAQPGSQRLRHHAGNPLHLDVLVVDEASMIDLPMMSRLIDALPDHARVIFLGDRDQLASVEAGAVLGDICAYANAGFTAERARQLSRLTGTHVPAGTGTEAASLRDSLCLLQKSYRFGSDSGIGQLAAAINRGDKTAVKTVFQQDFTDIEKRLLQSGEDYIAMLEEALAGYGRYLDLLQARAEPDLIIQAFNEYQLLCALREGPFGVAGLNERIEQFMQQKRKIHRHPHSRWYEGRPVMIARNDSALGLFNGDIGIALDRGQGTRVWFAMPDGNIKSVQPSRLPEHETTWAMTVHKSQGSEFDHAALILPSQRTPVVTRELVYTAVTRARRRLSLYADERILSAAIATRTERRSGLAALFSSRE
T5 sequence (P07648 whole entry): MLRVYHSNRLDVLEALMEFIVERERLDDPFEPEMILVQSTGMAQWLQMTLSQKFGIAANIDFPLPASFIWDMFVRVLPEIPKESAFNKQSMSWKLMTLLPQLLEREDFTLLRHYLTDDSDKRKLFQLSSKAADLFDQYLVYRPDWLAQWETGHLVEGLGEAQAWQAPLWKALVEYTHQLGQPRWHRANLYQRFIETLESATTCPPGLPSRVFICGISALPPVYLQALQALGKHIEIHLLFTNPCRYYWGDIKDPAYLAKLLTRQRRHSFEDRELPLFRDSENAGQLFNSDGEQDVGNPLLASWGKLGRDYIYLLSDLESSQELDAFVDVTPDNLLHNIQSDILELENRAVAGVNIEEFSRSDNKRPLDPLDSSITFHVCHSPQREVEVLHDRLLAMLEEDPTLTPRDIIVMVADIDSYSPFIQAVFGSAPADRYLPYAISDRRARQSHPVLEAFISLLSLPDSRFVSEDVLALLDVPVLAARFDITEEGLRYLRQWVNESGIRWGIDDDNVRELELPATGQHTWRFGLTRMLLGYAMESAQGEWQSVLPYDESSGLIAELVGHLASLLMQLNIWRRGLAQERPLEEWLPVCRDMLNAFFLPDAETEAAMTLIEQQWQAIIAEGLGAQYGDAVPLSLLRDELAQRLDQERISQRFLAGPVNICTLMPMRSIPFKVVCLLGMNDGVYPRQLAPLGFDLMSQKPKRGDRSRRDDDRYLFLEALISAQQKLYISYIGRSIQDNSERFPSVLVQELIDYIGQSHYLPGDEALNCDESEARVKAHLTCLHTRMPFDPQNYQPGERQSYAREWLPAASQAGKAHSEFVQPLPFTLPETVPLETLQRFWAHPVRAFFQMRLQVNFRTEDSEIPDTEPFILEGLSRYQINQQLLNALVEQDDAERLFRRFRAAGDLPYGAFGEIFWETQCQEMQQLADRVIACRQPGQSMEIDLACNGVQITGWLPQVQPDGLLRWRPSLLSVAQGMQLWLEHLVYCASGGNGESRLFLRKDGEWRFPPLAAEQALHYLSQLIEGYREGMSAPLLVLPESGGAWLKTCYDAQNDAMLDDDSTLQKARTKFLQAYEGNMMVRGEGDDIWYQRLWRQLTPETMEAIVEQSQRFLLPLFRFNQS
T5 sequence (P08394 whole entry): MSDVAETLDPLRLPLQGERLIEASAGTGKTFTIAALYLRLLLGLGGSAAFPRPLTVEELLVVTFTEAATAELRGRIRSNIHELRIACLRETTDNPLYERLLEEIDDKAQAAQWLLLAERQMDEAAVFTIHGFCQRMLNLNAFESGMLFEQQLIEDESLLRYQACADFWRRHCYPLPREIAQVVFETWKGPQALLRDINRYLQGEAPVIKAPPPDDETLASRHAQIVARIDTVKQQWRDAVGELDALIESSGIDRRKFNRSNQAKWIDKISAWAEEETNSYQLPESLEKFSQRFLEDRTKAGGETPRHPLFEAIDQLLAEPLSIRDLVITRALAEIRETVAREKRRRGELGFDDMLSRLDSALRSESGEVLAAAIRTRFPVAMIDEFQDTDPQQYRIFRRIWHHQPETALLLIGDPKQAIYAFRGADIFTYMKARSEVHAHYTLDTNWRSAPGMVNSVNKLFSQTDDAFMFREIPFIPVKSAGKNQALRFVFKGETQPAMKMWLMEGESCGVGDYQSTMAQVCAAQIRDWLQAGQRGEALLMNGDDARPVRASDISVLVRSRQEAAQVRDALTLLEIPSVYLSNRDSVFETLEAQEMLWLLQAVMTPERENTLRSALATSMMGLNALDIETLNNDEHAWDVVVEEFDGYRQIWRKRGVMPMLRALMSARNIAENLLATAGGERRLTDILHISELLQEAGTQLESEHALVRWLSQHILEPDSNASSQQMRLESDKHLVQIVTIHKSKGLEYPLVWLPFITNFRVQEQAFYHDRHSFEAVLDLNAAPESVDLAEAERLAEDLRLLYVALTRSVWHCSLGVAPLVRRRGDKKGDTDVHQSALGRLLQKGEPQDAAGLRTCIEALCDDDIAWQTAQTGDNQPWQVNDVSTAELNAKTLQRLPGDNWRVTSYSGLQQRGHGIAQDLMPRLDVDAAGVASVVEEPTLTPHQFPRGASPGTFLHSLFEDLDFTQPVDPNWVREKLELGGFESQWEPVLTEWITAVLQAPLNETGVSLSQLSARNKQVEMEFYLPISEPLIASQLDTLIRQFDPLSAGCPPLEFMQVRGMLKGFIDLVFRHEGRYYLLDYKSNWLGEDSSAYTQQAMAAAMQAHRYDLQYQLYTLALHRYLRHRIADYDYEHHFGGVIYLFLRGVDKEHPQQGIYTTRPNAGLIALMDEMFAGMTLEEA
As to the kind of experiment: RecBCD inhibition via phage-restricted bacterial growth – absorbance, V66 E. coli, mutant T4 phage, counter-screen for AddAB inhibitor project, dose response (AID 492957). The class given is functional, cell-based, Escherichia coli str. K-12 substr. MG1655. In general terms: The purpose of a counterscreen is to sort out artefacts and off-target activity.

Another assay relates to HEK293. Kind of assay: EBV LMP1 TES2 canonical NF-kB signalling blockers – cell-based, HEK293, luciferase, cherry-pick, dose response (AID 588343). The assay is classed as functional. The conditions noted are these: Homo sapiens.

T4 sequence (P41145 whole entry): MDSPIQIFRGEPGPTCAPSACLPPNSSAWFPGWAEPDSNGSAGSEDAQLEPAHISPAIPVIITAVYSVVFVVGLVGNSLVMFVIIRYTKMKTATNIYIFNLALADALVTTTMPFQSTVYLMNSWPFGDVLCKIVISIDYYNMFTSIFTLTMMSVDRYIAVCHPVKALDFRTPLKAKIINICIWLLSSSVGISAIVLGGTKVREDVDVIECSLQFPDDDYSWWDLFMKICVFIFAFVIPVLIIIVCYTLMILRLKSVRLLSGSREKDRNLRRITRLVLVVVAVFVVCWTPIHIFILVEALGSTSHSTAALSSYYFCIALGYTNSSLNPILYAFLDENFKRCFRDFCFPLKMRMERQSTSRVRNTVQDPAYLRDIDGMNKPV
Chain of Cytochrome P450 2D6 (P10635 whole entry): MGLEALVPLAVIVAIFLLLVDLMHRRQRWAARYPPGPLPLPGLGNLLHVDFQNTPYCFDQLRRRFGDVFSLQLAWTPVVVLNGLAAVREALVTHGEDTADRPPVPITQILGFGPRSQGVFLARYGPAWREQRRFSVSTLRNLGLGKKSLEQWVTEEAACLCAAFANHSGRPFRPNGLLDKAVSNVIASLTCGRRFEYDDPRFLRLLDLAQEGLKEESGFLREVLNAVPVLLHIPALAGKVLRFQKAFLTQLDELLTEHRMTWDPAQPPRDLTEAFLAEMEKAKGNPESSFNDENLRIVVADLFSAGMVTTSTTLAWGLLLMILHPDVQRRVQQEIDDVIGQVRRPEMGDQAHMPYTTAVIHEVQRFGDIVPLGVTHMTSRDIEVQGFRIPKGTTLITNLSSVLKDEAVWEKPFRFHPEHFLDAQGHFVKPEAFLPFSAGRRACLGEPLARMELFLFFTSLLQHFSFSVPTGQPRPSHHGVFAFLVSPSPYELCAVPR

One may read the AC50 as the midpoint of the concentration-response curve, whichever way the signal moves. Broadly, the IC50 is the concentration that gives 50% inhibition. As to `CN(C)S(=O)(=O)Oc1ccsc1C(=O)Nc1cccc(Cl)c1`, the concentration at half-maximal activity (AC50) on Cytochrome P450 2D6 was 25.1 µM (inconclusive). For the same molecule, the IC50 on Coagulation factor XII is > 50 µM (inactive).

As for `Cc1ccsc1C(=O)NCCC(c1ccccc1)c1ccccc1`, the IC50 in assay [1] is 0.719 µM (not active); on Coagulation factor XII, > 50 µM (inactive).

As to `COc1ccc(C2C(C(=O)Nc3ccccc3OC)=C(C)Nc3ncnn32)cc1` (stereo not drawn), on Coagulation factor XII, the IC50 is > 50 µM (inactive).

Usually EC50 stands for the concentration needed to bring the measured effect to its halfway point. With `N=C1SCC(=O)N1c1ncc(Cc2ccc(F)cc2)s1`, the IC50 was > 66.6 µM (inactive) on Beta-galactosidase [2], 7.35 µM (active) in [4] and above 32 µM in assay [6]. Moreover, the EC50 on Beta-galactosidase [3] was > 31.5 µM (inactive); in the assay on Streptococcus, 2.21 µM (active); in assay [5], 0.949 µM (active).

On to `Cc1cc(C)c(C#N)c(SCc2ccc([N+](=O)[O-])cc2)n1`, for which the IC50 at Coagulation factor XII is > 50 µM (inactive).

Take `NC(=S)N/N=C/c1ncc(C(F)(F)F)cc1Cl`: the IC50 in assay [7] was > 119 µM (inactive); in [4], 22.2 µM (inactive); at Exodeoxyribonuclease V, > 119 µM (inactive); in assay [6] it was above 32 µM. Besides, the EC50 at Beta-galactosidase [3] was > 31.5 µM (inactive). In the assay on HEK293, the AC50 is 10.2 µM (active).
